Assay results taken from patent EP0545103A1, “Insecticidal, acaricidal and molluscicidal 1-(substituted) thioalkylpyrroles” (priority 1991, dated 1993).

Legend:
Format in all cases: in vivo
Set-up in all cases: key: 0: no effect; 10-25% kill; 26-35% kill; 36-45% kill; 46-55% kill; 56-65% kill; 66-75% kill; 76-85% kill; 86-99% kill; 9: 100% kill
[1] = tested on: Diabrotic undecimpunctata howardi, 3rd instar southern corn rootworm; experiment: Southern corn rootworm soil test; conditions: mortality rating after 6 days
Outline: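 Compound applied in acetone to talc at 1.25 and 0.25 mg active ingredient per jar (about 50 and 10 kg/ha), dried, then mixed with millet seed and moist soil. Ten 3rd instar larvae added per jar; mortality counted at 6 days, with missing larvae scored dead. Results rated on a scale.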

[2] = tested on: Heliothis virescens, egg, tobacco budworm; experiment: Tobacco budworm egg test, dipped cotton leaf and eggs; conditions: mortality rating after 3 days
Outline: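 Compound dissolved at 10,000 ppm in 35% aqueous acetone, diluted with water. A cotton leaf and a cheesecloth square with roughly 50-100 eggs aged 6-30 h are each dipped for about 3 s, then combined and kept humid. Mortality counted after 3 days and rated on a scale.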

[3] = tested on: Spodoptera eridania, 3rd instar larvae, southern armyworm; experiment: Southern armyworm systemic uptake (stem systemic) test; conditions: cut stem in emulsion 3 days
[4] = tested on: Aphis fabae, mixed instar, bean aphid; experiment: Bean aphid spray test on nasturtium; conditions: 100 ppm
Outline: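 Compound dissolved at 10,000 ppm in 35% acetone/water, then water-diluted. Nasturtium plants (~5 cm) infested with 100-200 aphids one day before spraying to full coverage on a turntable; mortality estimated after 2 days on a rating scale.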

[5] = tested on: Tetranychus urticae (OP-resistant strain), 2-spotted spider mite; experiment: 2-spotted spider mite test, dipped infested limabean plants
Outline: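 Mite-infested Sieva limabean plants (OP-resistant strain, ~100 mites per leaf, transferred ~2 h earlier) dipped 3 s with agitation in compound solution (10,000 ppm stock in 35% acetone/water, diluted with water). Mortality counted at 2 days; egg and nymph mortality assessed at 5 days; rated on a scale.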

[6] = tested on: Empoasca abrupta, adult, western potato leafhopper; experiment: Western potato leafhopper systemic uptake test; conditions: 100 ppm
Outline: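 Cut Sieva lima bean stems stood 3 days at 27 °C in aqueous emulsion of test material (100 ppm, further 10-fold dilutions) for systemic uptake. One leaf then exposed to about 10 adult leafhoppers in a moist petri dish; mortality counted after 2 days and rated on a scale.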

[7] = 10 ppm, mite eggs, rating scale 0-9
[8] = 10 ppm, mite nymphs, rating scale 0-9
[9] = 100 ppm, mite eggs, rating scale 0-9
[10] = 300 ppm, mite eggs, rating scale 0-9
[11] = 300 ppm, mite nymphs, rating scale 0-9
[12] = systemic uptake, rating scale 0-9
[13] = spray, mortality rating after 2 days
[14] = 10 ppm, mortality rating after 2 days
[15] = 100 ppm, mortality rating after 2 days
[16] = 300 ppm, mortality rating after 2 days
[17] = cut stem in emulsion 3 days, mortality rating after 2 days
[18] = 10 ppm, adult mites, rating scale 0-9
[19] = 100 ppm, adult mites, rating scale 0-9
[20] = 100 ppm, mite nymphs, rating scale 0-9
[21] = 300 ppm, adult mites, rating scale 0-9

## CCOC(=S)SCn1c(Cl)c(Cl)c(C#N)c1-c1ccc(Cl)c(Cl)c1 [Example 28]
[1]; 50 (ppm as headed)
  SOUTHERN CORN ROOTWORM: 0
[2]; 100 ppm
  TOBACCO BUDWORM Egg: 0
[2]; 1000 ppm
  TOBACCO BUDWORM Egg: 0
[3]
  ARMYWORM Stem Sys: 0
[4]; rating scale 0-9
  APHIDS: 0
[5]; [7]
  OP-RESISTANT MITES Egg: 0
[5]; [8]
  OP-RESISTANT MITES Nymph: 3 (36-45% kill)
[5]; [9]
  OP-RESISTANT MITES Egg: 9 (100% kill)
[5]; [10]
  OP-RESISTANT MITES Egg: 0
[5]; [11]
  OP-RESISTANT MITES Nymph: 0
[6]; [12]
  LEAFHOPPER Systemic: 0

## CN(C)C(=S)SCn1c(-c2ccc(Cl)cc2)c(C#N)c(Br)c1C(F)(F)F [Example 24]
[1]; 1 (ppm as headed)
  SOUTHERN CORN ROOTWORM: 0
[1]; 10 (ppm as headed)
  SOUTHERN CORN ROOTWORM: 0
[1]; 50 (ppm as headed)
  SOUTHERN CORN ROOTWORM: 9 (100% kill)
[2]; 1000 ppm
  TOBACCO BUDWORM Egg: 0
[3]
  ARMYWORM Stem Sys: 0
[4]; [13]
  APHIDS: 7 (76-85% kill)
[5]; [14]
  OP-RESISTANT MITES Adult: 9 (100% kill)
[5]; 10 ppm, rating after 5 days
  OP-RESISTANT MITES Egg: 0
  OP-RESISTANT MITES Nymph: 0
[5]; [15]
  OP-RESISTANT MITES Adult: 9 (100% kill)
[5]; 100 ppm, rating after 5 days
  OP-RESISTANT MITES Egg: 9 (100% kill)
[5]; [16]
  OP-RESISTANT MITES Adult: 0
[5]; 300 ppm, rating after 5 days
  OP-RESISTANT MITES Egg: 9 (100% kill)
[6]; [17]
  LEAFHOPPER Systemic: 0

## N=C(N)SCn1c(-c2ccc(Cl)c(Cl)c2)c(Br)c(C(F)(F)F)c1C(F)(F)F [Example 18]
[1]; 50 (ppm as headed)
  SOUTHERN CORN ROOTWORM: 0
[2]; 1000 ppm
  TOBACCO BUDWORM Egg: 0
[3]
  ARMYWORM Stem Sys: 0
[4]; rating scale 0-9
  APHIDS: 0
[5]; [18]
  OP-RESISTANT MITES Adult: 0
[5]; [7]
  OP-RESISTANT MITES Egg: 0
[5]; [8]
  OP-RESISTANT MITES Nymph: 0
[5]; [19]
  OP-RESISTANT MITES Adult: 9 (100% kill)
[5]; [9]
  OP-RESISTANT MITES Egg: 0
[5]; [20]
  OP-RESISTANT MITES Nymph: 0
[5]; [21]
  OP-RESISTANT MITES Adult: 9 (100% kill)
[5]; [10]
  OP-RESISTANT MITES Egg: 0
[5]; [11]
  OP-RESISTANT MITES Nymph: 0
[6]; [12]
  LEAFHOPPER Systemic: 0

## FC(F)(F)c1c(Br)c(-c2ccc(Cl)c(Cl)c2)n(CSC2=NCCCN2)c1C(F)(F)F [Example 17]
[1]; 50 (ppm as headed)
  SOUTHERN CORN ROOTWORM: 7 (76-85% kill)
[2]; 1000 ppm
  TOBACCO BUDWORM Egg: 0
[3]
  ARMYWORM Stem Sys: 0
[4]; rating scale 0-9
  APHIDS: 0
[5]; [18]
  OP-RESISTANT MITES Adult: 0
[5]; [7]
  OP-RESISTANT MITES Egg: 0
[5]; [8]
  OP-RESISTANT MITES Nymph: 0
[5]; [19]
  OP-RESISTANT MITES Adult: 0
[5]; [9]
  OP-RESISTANT MITES Egg: 7 (76-85% kill)
[5]; [20]
  OP-RESISTANT MITES Nymph: 0
[5]; [21]
  OP-RESISTANT MITES Adult: 7 (76-85% kill)
[5]; [10]
  OP-RESISTANT MITES Egg: 0
[5]; [11]
  OP-RESISTANT MITES Nymph: 0
[6]; [12]
  LEAFHOPPER Systemic: 0

## CN(C)C(=S)SCn1c(-c2ccc(Cl)cc2)c(C#N)c(Cl)c1C(F)(F)F [Example 21]
[1]; 1 (ppm as headed)
  SOUTHERN CORN ROOTWORM: 0
[1]; 10 (ppm as headed)
  SOUTHERN CORN ROOTWORM: 0
[1]; 50 (ppm as headed)
  SOUTHERN CORN ROOTWORM: 9 (100% kill)
[2]; 100 ppm
  TOBACCO BUDWORM Egg: 0
[2]; 1000 ppm
  TOBACCO BUDWORM Egg: 0
[3]
  ARMYWORM Stem Sys: 0
[4]; [13]
  APHIDS: 0
[5]; [14]
  OP-RESISTANT MITES Adult: 9 (100% kill)
[5]; 10 ppm, rating after 5 days
  OP-RESISTANT MITES Egg: 0
  OP-RESISTANT MITES Nymph: 0
[5]; [15]
  OP-RESISTANT MITES Adult: 9 (100% kill)
[5]; 100 ppm, rating after 5 days
  OP-RESISTANT MITES Egg: 8 (86-99% kill)
  OP-RESISTANT MITES Nymph: 0
[5]; [16]
  OP-RESISTANT MITES Adult: 9 (100% kill)
[5]; 300 ppm, rating after 5 days
  OP-RESISTANT MITES Egg: 0
  OP-RESISTANT MITES Nymph: 9 (100% kill)
[6]; [17]
  LEAFHOPPER Systemic: 0

## CN(C)C(=S)SCn1c(Cl)c(C#N)c(Cl)c1-c1ccc(Cl)c(Cl)c1 [Example 36]
[1]; 50 (ppm as headed)
  SOUTHERN CORN ROOTWORM: 0
[2]; 1000 ppm
  TOBACCO BUDWORM Egg: 0
[3]
  ARMYWORM Stem Sys: 0
[4]; rating scale 0-9
  APHIDS: 0
[5]; [18]
  OP-RESISTANT MITES Adult: 0
[5]; [7]
  OP-RESISTANT MITES Egg: 0
[5]; [8]
  OP-RESISTANT MITES Nymph: 0
[5]; [19]
  OP-RESISTANT MITES Adult: 0
[5]; [9]
  OP-RESISTANT MITES Egg: 0
[5]; [20]
  OP-RESISTANT MITES Nymph: 0
[5]; [21]
  OP-RESISTANT MITES Adult: 7 (76-85% kill)
[5]; [10]
  OP-RESISTANT MITES Egg: 0
[5]; [11]
  OP-RESISTANT MITES Nymph: 0
[6]; [12]
  LEAFHOPPER Systemic: 0

## N#Cc1c(Br)c(Br)n(CSc2ccccc2)c1-c1ccc(C(F)(F)F)cc1 [Example 45, 4,5-dibromo-1-[(phenylthio)methyl]-2-(alpha, alpha,alpha-trifluoro-p-tolyl)pyrrole-3-carbonitrile]
[1]; 50 (ppm as headed)
  SOUTHERN CORN ROOTWORM: 0
[2]; 1000 ppm
  TOBACCO BUDWORM Egg: 0
[3]
  ARMYWORM Stem Sys: 0
